Experimental findings from US8846928B2 (Portola Pharmaceuticals, Inc., priority 2010, dated 2014) are described below.

The test addresses T1, full length active recombinant SYK enzyme (Homo sapiens, UniProt P43405).
T1 construct: full length active recombinant SYK enzyme (Millipore, Calif.); purchased Millipore
The test can be described thus: Inhibition of Syk tyrosine phosphorylation activity (LANCE TR-FRET kinase assay). Format: biochemical. As for the experimental part: Inhibition of Syk Tyrosine Phosphorylation Activity
Potency of candidate molecules for inhibiting Syk tyrosine phosphorylation activity is assessed by measuring the ability of a test compound to inhibit Syk-mediated tyrosine phosphorylation of a Syk-specific substrate.
SYK tyrosine phosphorylation activity is measured using the LANCE™ Technology developed by Perkin Elmer Life and Analytical Sciences (Boston, Mass.). LANCE™ refers to homogeneous time resolved fluorometry applications using techniques such as time-resolved fluorescence resonance energy transfer assay (TR-FRET) (see generally for procedures in Perkin Elmer Application Note—How to Optimize a Tyrosine Kinase Assay Using Time Resolved Fluorescence-Based LANCE Detection, wwww.perkinelmer.com/lifesciences). The assay principle involves detection of a phosphorylated substrate using energy transfer from a phosphospecific europium-labeled antibody to streptavidin-allophycocyanin as an acceptor.
To test the ability of candidate molecules to inhibit SYK tyrosine phosphorylation activity, molecules are reconstituted in 30% DMSO and serially diluted 1:3 with the final dilution containing DMSO in the absence of the candidate molecule. The final DMSO concentration in the assay is 3%. Kinase assays are performed as a two part reaction. […] The second reaction involves termination of the kinase reaction and the simultaneous addition of the detection reagents—europium-labeled anti-phosphotyrosine reagent (Eu-W1024-PY100, Perkin Elmer, Boston, Mass.) and Streptavidin-Allophycocyanin detection reagent (SA-APC, Prozyme, Calif.). The kinase reaction is performed in a black U-bottom 96-well microtitre plate. The final reaction volume is 50 μL and contains a final concentration of 1 nM active SYK enzyme, 550 nM SYK-substrate, and 100 μM ATP diluted in a buffer containing 50 mM Tris pH 7.5, 5 mM MgCl2, and 1 mM DTT. The reaction is allowed to proceed for 1 hour at room temperature. The quench buffer contains 100 mM Tris pH 7.5, 300 mM NaCl2, 20 mM EDTA, 0.02% Brij35, and 0.5% BSA. The detection reagents are added to the reaction mixture at the following dilutions-1:500 for Eu-W1024-PY100 and 1:250 for SA-APC. The kinase reaction is terminated by the addition of 50 μL quench buffer containing the detection reagents. The detection is allowed to proceed for 1 hr at room temperature. Detection of the phosphorylated substrate in the absence and presence of inhibitors is measured in the TR-FRET instrument, Analyst HT (Molecular Probes, Sunnyvale, Calif.) and the condition for measurements are set up using CriterionHost Release 2.0 (Molecular Probes, Sunnyvale, Calif.). The settings used are a follows: excitation 360 nm, emission 665-7.5 nm, beam splitter 350 nm 50/50, flash 100 pulses, delay 60 us, integration 400 us, z-height 2 mm. […] IC50s were derived by non-linear regression analysis. […]

In the case of `CC[C@H](N)CNc1ccc(C(N)=O)c(Nc2cc(C)ns2)c1` [Example 30, (S)-4-(2-aminobutylamino)-2-(3-methylisothiazol-5-ylamino)benzamide], the half-maximal inhibitory concentration (IC50) was in the range of 0.1 to 1 µM.
As to `Cc1cc(Nc2cc(NC[C@H](C)N)ccc2C(N)=O)sn1` [Example 31, (S)-4-(2-aminopropylamino)-2-(3-methylisothiazol-5-ylamino)benzamide], the IC50 fell in the range of 0.01 to 0.1 µM.
The figure for `Cc1cc(Nc2cc(NC[C@@H](N)CC(C)C)ccc2C(N)=O)sn1` [Example 32, (S)-4-(2-amino-4-methylpentylamino)-2-(3-methylisothiazol-5-ylamino)benzamide] is 0.1 to 1 µM.
`CC[C@@H](Nc1ccc(C(N)=O)c(Nc2cc(C)ns2)c1)C(N)=O` [Example 33, (R)-4-(1-amino-1-oxobutan-2-ylamino)-2-(3-methylisothiazol-5-ylamino)benzamide]: the IC50 was in the range of 0.01 to 0.1 µM.
The figure for `Cc1cc(Nc2cc(N[C@@H](C(N)=O)C3CC3)ccc2C(N)=O)sn1` [Example 34] is 0.01 to 0.1 µM; for `Cc1cc(Nc2cc(N[C@H](CC3CC3)C(N)=O)ccc2C(N)=O)sn1` [Example 35, (R)-4-(1-amino-3-cyclopropyl-1-oxopropan-2-ylamino)-2-(3-methylisothiazol-5-ylamino)benzamide] it is 0.01 to 0.1 µM.
With `COc1ccc(C[C@@H](Nc2cc(Nc3cc(C)ns3)c(C(N)=O)cc2F)C(N)=O)cc1` [Example 36, (R)-4-(1-amino-3-(4-methoxyphenyl)-1-oxopropan-2-ylamino)-5-fluoro-2-(3-methylisothiazol-5-ylamino)benzamide], the IC50 was 0.01 to 0.1 µM.
For `Cc1cc(Nc2cc(N[C@H](Cc3cccc(F)c3)C(N)=O)c(F)cc2C(N)=O)sn1` [Example 37, (R)-4-(1-amino-3-(3-fluorophenyl)-1-oxopropan-2-ylamino)-5-fluoro-2-(3-methylisothiazol-5-ylamino)benzamide], the IC50 was in the range of 0.01 to 0.1 µM.
Turning to `Cc1cc(Nc2cc(N[C@H](Cc3ccncc3)C(N)=O)c(F)cc2C(N)=O)sn1` [Example 38, (R)-4-(1-amino-1-oxo-3-(pyridin-4-yl)propan-2-ylamino)-5-fluoro-2-(3-methylisothiazol-5-ylamino)benzamide], the half-maximal inhibitory concentration (IC50) was 0.1 to 1 µM.
As for `Cc1cc(Nc2cc(N[C@H](Cc3cccnc3)C(N)=O)c(F)cc2C(N)=O)sn1` [Example 39, (R)-4-(1-amino-1-oxo-3-(pyridin-3-yl)propan-2-ylamino)-5-fluoro-2-(3-methylisothiazol-5-ylamino)benzamide], the 50% inhibitory concentration (IC50) was in the range of 0.1 to 1 µM.
Regarding `COC[C@@H](Nc1cc(Nc2cc(C)ns2)c(C(N)=O)cc1F)C(N)=O` [Example 40, (R)-4-(1-amino-3-methoxy-1-oxopropan-2-ylamino)-5-fluoro-2-(3-methylisothiazol-5-ylamino)benzamide], the half-maximal inhibitory concentration (IC50) lay within 0.01 to 0.1 µM.
`NC(=O)c1cc(F)c(N[C@@H]2CCCC[C@@H]2N)nc1Nc1cccc(-n2nccn2)c1` [Example 41, 2-(3-(2H-1,2,3-triazol-2-yephenylamino)-6-(1R,2S)-2-aminocyclohexylamino)-5-fluoronicotinamide]: the IC50 was 0.001 to 0.01 µM.
On to `NC(=O)c1cc(F)c(N[C@@H]2CCCC[C@@H]2N)nc1Nc1cccc(-n2cncn2)c1` [Example 42, 2-(3-(1H-1,2,4-triazol-1-yl)phenylamino)-6-((1R,2S)-2-aminocyclohexylamino)-5-fluoronicotinamide], for which the 50% inhibitory concentration (IC50) is 0.001 to 0.01 µM.
As for `NC(=O)c1cc(F)c(N[C@@H]2CCCC[C@@H]2N)nc1Nc1cccc(-n2ccnn2)c1` [Example 43], the 50% inhibitory concentration (IC50) lay in the range of 0.001 to 0.01 µM.
In the case of `NC(=O)c1cc(F)c(N[C@@H]2CCCC[C@@H]2N)nc1Nc1cccc(-n2cnnn2)c1` [Example 44, 2-(3-(1H-tetrazol-1-yl)phenylamino)-6-((1R,2S)-2-aminocyclohexylamino)-5-fluoronicotinamide], the concentration for half-maximal inhibition (IC50) was in the range of 0.001 to 0.01 µM.
